Reference: patent US10968178B2, “IP6K inhibitors” (TAKEDA PHARMACEUTICAL COMPANY LIMITED, priority 2017, dated 2021)

Legend:
Type in all cases: biochemical
human IP6K1 = molecular target: T1, human IP6K1 (Homo sapiens, UniProt Q92551); assay: IP6K enzyme inhibitory assay (ADP-Glo Kinase Assay), human IP6K1; conditions: compound concentration 0.1 μM; read-out: ADP-Glo method inhibitory rate (%) human IP6K1
T1 construct: human IP6K1 (1-441) gene; GST; made in house; host or cells: Sf-9 insect cells
Outline: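 Inhibition of human IP6K1 was determined with Promega's ADP-Glo Kinase Assay in 384 well plates. Test compound diluted in assay buffer (20 mM HEPES (pH 7.5), 6 mM MgCl2, 0.01% Tween-20, 1 mM DTT) was added at 2 μL, then 2 μL of enzyme started the reaction for 60 min at room temperature. Next came 3 μL ADP-Glo solution for 30 min and 6 μL Kinase-Detection solution for 60 min. Luminescence was read on an Envision plate reader.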

human IP6K2 = molecular target: T2, human IP6K2 (Homo sapiens, UniProt Q9UHH9); assay: IP6K enzyme inhibitory assay (ADP-Glo Kinase Assay), human IP6K2; conditions: compound concentration 0.1 μM; read-out: ADP-Glo method inhibitory rate (%) human IP6K2
T2 construct: human IP6K2 (1-426) gene; GST; made in house; host or cells: Sf-9 insect cells
T2 sequence (Q9UHH9 1-426): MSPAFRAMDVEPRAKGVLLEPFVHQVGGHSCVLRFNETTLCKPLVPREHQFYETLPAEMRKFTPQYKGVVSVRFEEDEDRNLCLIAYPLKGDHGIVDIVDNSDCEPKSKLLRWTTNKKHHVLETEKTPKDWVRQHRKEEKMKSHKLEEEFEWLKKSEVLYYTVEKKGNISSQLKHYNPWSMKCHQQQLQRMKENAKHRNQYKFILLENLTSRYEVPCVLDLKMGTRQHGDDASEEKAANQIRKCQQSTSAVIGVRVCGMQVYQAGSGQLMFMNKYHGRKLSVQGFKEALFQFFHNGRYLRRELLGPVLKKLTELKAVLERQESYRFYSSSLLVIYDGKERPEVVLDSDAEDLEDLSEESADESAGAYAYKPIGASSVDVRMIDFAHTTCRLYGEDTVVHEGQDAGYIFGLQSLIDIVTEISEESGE
Outline: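 The inhibitory activity against human IP6K2 was measured with Promega's ADP-Glo Kinase Assay in 384 well plates. Test compound, diluted in assay buffer (20 mM HEPES (pH 7.5), 6 mM MgCl2, 0.01% Tween-20, 1 mM DTT), was added at 2 μL. Adding 2 μL of diluted enzyme started the reaction, which ran for 60 min at room temperature. Next, 3 μL ADP-Glo solution (30 min) and 6 μL Kinase-Detection solution (60 min) were added, and luminescence was read on an Envision plate reader.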

human IP6K3 = molecular target: T3, human IP6K3 (Homo sapiens, UniProt Q96PC2); assay: IP6K enzyme inhibitory assay (ADP-Glo Kinase Assay), human IP6K3; conditions: compound concentration 0.1 μM; read-out: ADP-Glo method inhibitory rate (%) human IP6K3
T3 construct: human IP6K3 (1-410) gene; made in house; host or cells: BL21 (DE3) Escherichia coli
T3 sequence (Q96PC2 1-410): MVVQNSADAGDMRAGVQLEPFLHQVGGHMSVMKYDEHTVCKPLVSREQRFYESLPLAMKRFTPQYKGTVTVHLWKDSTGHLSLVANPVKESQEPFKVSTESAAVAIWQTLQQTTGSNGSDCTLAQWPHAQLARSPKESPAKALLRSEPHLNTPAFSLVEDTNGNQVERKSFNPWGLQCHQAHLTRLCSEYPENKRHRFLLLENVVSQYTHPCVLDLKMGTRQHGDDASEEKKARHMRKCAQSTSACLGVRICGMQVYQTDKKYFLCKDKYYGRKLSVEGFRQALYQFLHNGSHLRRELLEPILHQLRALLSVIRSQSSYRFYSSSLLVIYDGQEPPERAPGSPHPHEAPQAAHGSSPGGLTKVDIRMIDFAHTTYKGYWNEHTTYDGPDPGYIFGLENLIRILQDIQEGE
Outline: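 Recombinant human IP6K (IP6K3 residues 1-410, E. coli, Ni-NTA purified) incubated with compound in 20 mM HEPES pH 7.5, 6 mM MgCl2, 0.01% Tween-20, 1 mM DTT for 60 min at room temperature. ADP formed read as luminescence by ADP-Glo.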

T1 sequence (Q92551 whole entry): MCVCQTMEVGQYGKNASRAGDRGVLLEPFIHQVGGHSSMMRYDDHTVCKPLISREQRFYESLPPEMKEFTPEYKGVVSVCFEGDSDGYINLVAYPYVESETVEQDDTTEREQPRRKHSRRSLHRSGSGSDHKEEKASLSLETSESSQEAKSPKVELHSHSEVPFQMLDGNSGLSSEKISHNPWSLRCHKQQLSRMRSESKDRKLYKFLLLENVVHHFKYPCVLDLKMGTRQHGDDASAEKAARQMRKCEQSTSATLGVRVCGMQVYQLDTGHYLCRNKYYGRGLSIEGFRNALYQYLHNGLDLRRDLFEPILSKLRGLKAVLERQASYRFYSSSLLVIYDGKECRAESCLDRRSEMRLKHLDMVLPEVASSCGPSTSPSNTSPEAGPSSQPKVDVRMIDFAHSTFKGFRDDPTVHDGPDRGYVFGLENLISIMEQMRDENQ

inhibition at 0.1 µM (human IP6K1) [%]	inhibition at 0.1 µM (human IP6K2) [%]	inhibition at 0.1 µM (human IP6K3) [%]	SMILES
94	99	98	O=C(O)c1ccc2c(c1)[C@]1(CC[C@@H](Oc3cccc(C(F)(F)F)c3F)CC1)C(=O)N2 [Example 77, (1r,4r)-4-(2-fluoro-3-(trifluoromethyl)phenoxy)-2′-oxo-1′,2′-dihydrospiro[cyclohexane-1,3′-indole]-5′-carboxylic acid]
96	96	98	O=C(O)c1ccc2c(c1)[C@]1(CC[C@@H](Oc3cc(C(F)(F)F)ccc3F)CC1)C(=O)N2 [Example 78, (1r,4r)-4-(2-fluoro-5-(trifluoromethyl)phenoxy)-2′-oxo-1′,2′-dihydrospiro[cyclohexane-1,3′-indole]-5′-carboxylic acid]
87	89	97	O=C(O)c1ccc2c(c1)[C@]1(CC[C@@H](Oc3ccc(F)c(C(F)(F)F)c3)CC1)C(=O)N2 [Example 79, (1r,4r)-4-(4-fluoro-3-(trifluoromethyl)phenoxy)-2′-oxo-1′,2′-dihydrospiro[cyclohexane-1,3′-indole]-5′-carboxylic acid]
62	82	89	Cn1nc(O[C@H]2CC[C@@]3(CC2)C(=O)Nc2ccc(C(=O)O)cc23)cc1C(F)(F)F [Example 80, (1r,4r)-4-((1-methyl-5-(trifluoromethyl)-1H-pyrazol-3-yl)oxy)-2′-oxo-1′,2′-dihydrospiro[cyclohexane-1,3′-indole]-5′-carboxylic acid]
96	100	100	Cc1cc(Cl)cnc1O[C@H]1CC[C@]2(CC1)C(=O)Nc1ccc(C(=O)O)nc12 [Example 81, (1s,4s)-4-((5-chloro-3-methylpyridin-2-yl)oxy)-2′-oxo-1′,2′-dihydrospiro[cyclohexane-1,3′-pyrrolo[3,2-b]pyridine]-5′-carboxylic acid]
98	101	99	COc1cc(Cl)ccc1O[C@H]1CC[C@@]2(CC1)C(=O)Nc1ccc(C(=O)O)cc12 [Example 82, (1r,4r)-4-(4-chloro-2-methoxyphenoxy)-2′-oxo-1′,2′-dihydrospiro[cyclohexane-1,3′-indole]-5′-carboxylic acid]
97	100	102	COc1cc(Cl)ccc1O[C@H]1CC[C@]2(CC1)C(=O)Nc1ccc(C(=O)O)cc12 [Example 83, (1s,4s)-4-(4-chloro-2-methoxyphenoxy)-2′-oxo-1′,2′-dihydrospiro[cyclohexane-1,3′-indole]-5′-carboxylic acid]
75	59	91	O=C(O)c1ccc2c(n1)[C@]1(CC[C@H](Oc3ccc(F)cc3F)CC1)C(=O)N2 [Example 84, (1s,4s)-4-(2,4-difluorophenoxy)-2′-oxo-1′,2′-dihydrospiro[cyclohexane-1,3′-pyrrolo[3,2-b]pyridine]-5′-carboxylic acid]
81	71	95	O=C(O)c1ccc2c(n1)[C@]1(CC[C@H](Oc3ccccc3Cl)CC1)C(=O)N2 [Example 85, (1s,4s)-4-(2-chlorophenoxy)-2′-oxo-1′,2′-dihydrospiro[cyclohexane-1,3′-pyrrolo[3,2-b]pyridine]-5′-carboxylic acid]
55	50	80	O=C(O)c1ccc2c(n1)[C@]1(CC[C@H](Oc3c(F)cc(Cl)cc3F)CC1)C(=O)N2 [Example 86, (1s,4s)-4-(4-chloro-2,6-difluorophenoxy)-2′-oxo-1′,2′-dihydrospiro[cyclohexane-1,3′-pyrrolo[3,2-b]pyridine]-5′-carboxylic acid]
107	102	102	O=C(O)c1ccc2c(c1)[C@]1(CC[C@H](Oc3ncc(Cl)cc3F)CC1)C(=O)N2 [Example 87, (1s,4s)-4-((5-chloro-3-fluoropyridin-2-yl)oxy)-2′-oxo-1′,2′-dihydrospiro[cyclohexane-1,3′-indole]-5′-carboxylic acid]
101	97	97	O=C(O)c1ccc2c(n1)[C@]1(CC[C@H](Oc3ccc(Cl)cc3)CC1)C(=O)N2 [Example 88, (1s,4s)-4-(4-chlorophenoxy)-2′-oxo-1′,2′-dihydrospiro[cyclohexane-1,3′-pyrrolo[3,2-b]pyridine]-5′-carboxylic acid]
9	14	26	Cc1cc(Cl)cc(C)c1O[C@H]1CC[C@]2(CC1)C(=O)Nc1ccc(C(=O)O)nc12 [Example 89, (1s,4s)-4-(4-chloro-2,6-dimethylphenoxy)-2′-oxo-1′,2′-dihydrospiro[cyclohexane-1,3′-pyrrolo[3,2-b]pyridine]-5′-carboxylic acid]
49	47	61	O=C(O)c1ccc2c(n1)[C@]1(CC[C@@H](Oc3ccccc3Cl)CC1)C(=O)N2 [Example 90, (1r,4r)-4-(2-chlorophenoxy)-2′-oxo-1′,2′-dihydrospiro[cyclohexane-1,3′-pyrrolo[3,2-b]pyridine]-5′-carboxylic acid]
69	60	79	O=C(O)c1ccc2c(n1)[C@]1(CC[C@@H](Oc3ccc(F)cc3F)CC1)C(=O)N2 [Example 91, (1r,4r)-4-(2,4-difluorophenoxy)-2′-oxo-1′,2′-dihydrospiro[cyclohexane-1,3′-pyrrolo[3,2-b]pyridine]-5′-carboxylic acid]
97	92	98	O=C(O)c1ccc2c(n1)[C@]1(CC[C@@H](Oc3ccc(Cl)cc3)CC1)C(=O)N2 [Example 92, (1r,4r)-4-(4-chlorophenoxy)-2′-oxo-1′,2′-dihydrospiro[cyclohexane-1,3′-pyrrolo[3,2-b]pyridine]-5′-carboxylic acid]
92	96	101	O=C(O)c1ccc2c(n1)[C@]1(CC[C@@H](Oc3c(F)cc(Cl)cc3F)CC1)C(=O)N2 [Example 93, (1r,4r)-4-(4-chloro-2,6-difluorophenoxy)-2′-oxo-1′,2′-dihydrospiro[cyclohexane-1,3′-pyrrolo[3,2-b]pyridine]-5′-carboxylic acid]
91	97	101	Cc1cc(Cl)cc(C)c1O[C@H]1CC[C@@]2(CC1)C(=O)Nc1ccc(C(=O)O)nc12 [Example 94, (1r,4r)-4-(4-chloro-2,6-dimethylphenoxy)-2′-oxo-1′,2′-dihydrospiro[cyclohexane-1,3′-pyrrolo[3,2-b]pyridine]-5′-carboxylic acid]
88	91	96	O=C(O)c1ccc2c(n1)[C@]1(CC[C@@H](Oc3ccc(Cl)cc3C(F)(F)F)CC1)C(=O)N2 [Example 95, (1r,4r)-4-(4-chloro-2-(trifluoromethyl)phenoxy)-2′-oxo-1′,2′-dihydrospiro[cyclohexane-1,3′-pyrrolo[3,2-b]pyridine]-5′-carboxylic acid]
